Reference: ChEMBL document CHEMBL1131946, “Synthesis and evaluation of backbone/amide-modified analogs of leualacin” (Bioorg Med Chem Lett, 1999)
pIC50: −log10 of the molar value.

How the values were obtained:
[1] = Inhibitory effect against arachidonic acid-induced platelet aggregation at a concentration of 100 uM; format: functional
Rattus norvegicus [2] = species: Rattus norvegicus; assay: vasodilatory effect for [Ca2+] antagonism in aortic arch isolated from WKY rats at a concentration of 10 uM; format: functional, Pharyngeal arch artery
Rattus norvegicus [3] = species: Rattus norvegicus; assay: vasodilatory effect for [Ca2+] antagonism in aortic arch isolated from WKY rats at a concentration of 1 uM; format: functional, Pharyngeal arch artery
Rattus norvegicus [4] = species: Rattus norvegicus; assay: vasodilatory effect for [Ca2+] antagonism in aortic arch isolated from WKY rats at a concentration of 100 uM; format: functional, Pharyngeal arch artery
[5] = Inhibitory effect against TXB2 formation in response to arachidonic acid-induced platelet aggregation at a concentration of 100 uM; format: functional
[6] = Inhibitory effect against U-46,619-induced platelet aggregation at a concentration of 1 uM; format: functional
[7] = Inhibitory effect against TXB2 formation in response to collagen-induced platelet aggregation at a concentration of 100 ug/mL; format: functional
[8] = Inhibitory effect against collagen-induced platelet aggregation at a concentration of 100 ug/mL; format: functional
Rattus norvegicus [9] = species: Rattus norvegicus; assay: vasodilatory effect for [Ca2+] antagonism in aortic arch isolated from WKY rats at a concentration of 0.01 uM; format: functional, Pharyngeal arch artery
Rattus norvegicus [10] = species: Rattus norvegicus; assay: vasodilatory effect for [Ca2+] antagonism in aortic arch isolated from WKY rats at a concentration of 0.1 uM; format: functional, Pharyngeal arch artery

Row | pIC50 [1] | pIC50 [6] | pIC50 [8] | SMILES | Vasodilatory rate (Rattus norvegicus [2]) [%] | Vasodilatory rate (Rattus norvegicus [3]) [%] | Vasodilatory rate (Rattus norvegicus [4]) [%] | Amount of TXB2 formation [5] [ng/mL] | Amount of TXB2 formation [7] [ng/mL] | Vasodilatory rate (Rattus norvegicus [9]) [%] | Vasodilatory rate (Rattus norvegicus [10]) [%]
1 | 3.82 | 3.82 | 4.30 | CC(C)C[C@@H]1NC(=O)[C@@H](CC(C)C)OC(=O)CCNC(=O)[C@H](Cc2ccccc2)N(C)C(=O)[C@H](CC(C)C)OC1=O | 64.4 | 26.8 | 66.5 | 55.4 | 39.4 |  | 
2 | < 3.70 | < 3.70 | < 3.82 | CC(C)C[C@@H]1NC(=O)[C@@H](CC(C)C)OC(=O)CCN(C)C(=O)[C@H](Cc2ccccc2)N(C)C(=O)[C@H](CC(C)C)OC1=O | 80.8 | 25.1 | 78 |  |  | 11.5 | 32.5
3 | 4.52 | 4.40 | 5.00 | CC(C)C[C@@H]1NC(=O)[C@@H](CC(C)C)NC(=O)CCNC(=O)[C@H](Cc2ccccc2)N(C)C(=O)[C@H](CC(C)C)OC1=O |  | 100 |  | 30.7 | 25.6 | 29.3 | 35
4 | < 3.70 | < 3.70 | < 3.82 | CC(C)C[C@@H]1NC(=O)[C@@H](CC(C)C)NC(=O)CCN(C)C(=O)[C@H](Cc2ccccc2)N(C)C(=O)[C@H](CC(C)C)OC1=O |  |  |  |  |  |  | 
